This is an account of results in patent US20090143361A1, “Pyrido[3,2-E]Pyrazines, Process For Preparing The Same, And Their Use As Inhibitors Of Phosphodiesterase 10” (ELBION GMBH, priority 2007, published 2009).

Where two headings read alike, the source gives them in different places.

Experiment [1] addresses T1, human recombinant PDE10A (Homo sapiens, UniProt Q9Y233).
T1 construct: made in house; host or cells: SF21 insect cells (baculovirus)
Put plainly: Inhibition of PDE10, human recombinant PDE10A ([3H]-cAMP SPA). It counts as biochemical.

In experiment [2] the target is PDE10 from pig striatum (Sus scrofa, UniProt A0A287B941). Put plainly: Inhibition of PDE10 from pig striatum ([3H]-cAMP SPA). It counts as biochemical.
The target of experiment [3] is PDE10 from guinea pig striatum (Cavia porcellus, UniProt A0A286XN47). Put plainly: Inhibition of PDE10 from guinea pig striatum ([3H]-cAMP SPA). The settings on record: Method B. It counts as biochemical. The method, then: (§1) The phosphodiesterase isoenzyme 10 (PDE10) activity was determined in preparations of rat, pig and guinea pig striatum respectively. Striatum from male Wistar rats (180-200 g), male hybrid pigs (150 kg) and male guinea pigs (CRL (HA), 500 g) respectively were collected and frozen at −70° C. At the day of preparation 0.5 g striatum was homogenized in 10 ml 50 mM Tris/Mg-buffer at 4° C. and centrifuged for one hour at 100000 g. The supernatant is called the cytosolic fraction and was removed and stored on ice. The pellet was resuspended in the same buffer, but containing 1% Triton and incubated for 45 min at 4° C. Both fractions were independently applied onto a 5 ml Hi Trap™ QHP column at the Akta-FPLC. After washing the columns the bound PDE protein was eluted with an increasing sodium chloride gradient (0 mM-500 mM sodium chloride) in 50 mM Tris/Mg-buffer at 4° C. for the cytosolic fraction and in the presence of 1% Triton for the membrane fraction. […] The fractions with PDE10-activity were pooled and frozen in aliquots until use at −20° C. PDE10 activity was determined in a one step procedure in microtiterplates. […] Nonspecific activity was tested without the enzyme. […] One hour later the mixture was measured in a liquid scintillation counter for microtiterplates (Microbeta Trilux). […]
Sequence of PDE10 from guinea pig striatum (A0A286XN47 1-773): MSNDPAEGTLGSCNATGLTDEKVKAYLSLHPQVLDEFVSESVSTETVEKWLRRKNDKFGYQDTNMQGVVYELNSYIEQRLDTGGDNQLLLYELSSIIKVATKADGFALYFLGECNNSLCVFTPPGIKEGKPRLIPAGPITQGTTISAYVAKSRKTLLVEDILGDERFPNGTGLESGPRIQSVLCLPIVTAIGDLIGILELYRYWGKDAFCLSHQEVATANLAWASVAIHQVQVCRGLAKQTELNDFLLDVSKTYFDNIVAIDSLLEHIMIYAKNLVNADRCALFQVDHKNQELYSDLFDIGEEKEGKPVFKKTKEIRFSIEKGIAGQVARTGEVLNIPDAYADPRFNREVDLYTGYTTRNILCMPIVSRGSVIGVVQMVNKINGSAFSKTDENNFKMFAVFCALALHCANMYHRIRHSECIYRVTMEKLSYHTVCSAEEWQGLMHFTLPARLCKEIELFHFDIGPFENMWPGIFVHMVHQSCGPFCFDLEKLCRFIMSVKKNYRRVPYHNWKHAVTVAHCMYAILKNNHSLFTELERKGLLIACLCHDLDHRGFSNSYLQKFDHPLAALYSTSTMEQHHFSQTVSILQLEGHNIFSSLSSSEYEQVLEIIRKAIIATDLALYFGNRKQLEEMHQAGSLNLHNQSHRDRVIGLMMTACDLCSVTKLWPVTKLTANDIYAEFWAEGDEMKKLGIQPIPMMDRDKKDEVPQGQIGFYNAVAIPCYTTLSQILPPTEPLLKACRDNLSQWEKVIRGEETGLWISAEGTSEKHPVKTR

For experiment [4] the following is noted: rats; Kostowski et al. 1976; cited from earlier work.
The conditions of experiment [5]: rats; Kostowski et al. 1976; cited from earlier work. The source holds these as a separate data set.
For experiment [6] the following is noted: rats; Kostowski et al. 1976; cited from earlier work. This is another data set of the same source.
For experiment [7], the target named is T2, PDE10 from rat striatum (Rattus norvegicus, UniProt Q9QYJ6).
T2 construct: from tissue; host or cells: rat (Wistar) striatum, FPLC fractions
T2 sequence (Q9QYJ6 1-794): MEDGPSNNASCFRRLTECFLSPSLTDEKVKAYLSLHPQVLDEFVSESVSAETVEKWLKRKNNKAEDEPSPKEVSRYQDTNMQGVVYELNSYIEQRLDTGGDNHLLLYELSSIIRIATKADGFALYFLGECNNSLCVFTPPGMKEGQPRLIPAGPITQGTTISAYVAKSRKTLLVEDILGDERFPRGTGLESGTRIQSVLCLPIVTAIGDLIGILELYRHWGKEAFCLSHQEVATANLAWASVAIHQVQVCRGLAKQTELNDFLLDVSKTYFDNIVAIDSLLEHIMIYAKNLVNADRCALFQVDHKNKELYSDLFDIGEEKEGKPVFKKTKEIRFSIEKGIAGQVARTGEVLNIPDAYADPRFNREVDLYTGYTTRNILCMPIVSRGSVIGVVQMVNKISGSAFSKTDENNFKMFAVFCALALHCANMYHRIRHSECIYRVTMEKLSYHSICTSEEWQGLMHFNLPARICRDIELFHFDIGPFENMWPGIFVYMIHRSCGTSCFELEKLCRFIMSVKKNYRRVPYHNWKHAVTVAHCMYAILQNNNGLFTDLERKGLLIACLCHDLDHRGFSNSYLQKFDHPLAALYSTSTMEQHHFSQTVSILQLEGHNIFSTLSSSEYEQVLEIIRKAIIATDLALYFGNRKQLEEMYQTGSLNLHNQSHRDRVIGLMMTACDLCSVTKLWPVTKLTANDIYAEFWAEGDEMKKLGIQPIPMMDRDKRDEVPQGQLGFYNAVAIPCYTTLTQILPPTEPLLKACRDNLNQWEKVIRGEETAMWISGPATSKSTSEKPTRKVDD
Put plainly: Inhibition of PDE10 from rat striatum ([3H]-cAMP SPA). It counts as biochemical. As to conditions: Method B, read-out: Km-value for the substrate. The method, then: as §1

The target in experiment [8] is Phosphodiesterase (PDE) 10A (Homo sapiens, UniProt Q9Y233). The settings on record: Soderling et al. 1999; cited from earlier work.
Sequence of Phosphodiesterase (PDE) 10A (Q9Y233 whole entry): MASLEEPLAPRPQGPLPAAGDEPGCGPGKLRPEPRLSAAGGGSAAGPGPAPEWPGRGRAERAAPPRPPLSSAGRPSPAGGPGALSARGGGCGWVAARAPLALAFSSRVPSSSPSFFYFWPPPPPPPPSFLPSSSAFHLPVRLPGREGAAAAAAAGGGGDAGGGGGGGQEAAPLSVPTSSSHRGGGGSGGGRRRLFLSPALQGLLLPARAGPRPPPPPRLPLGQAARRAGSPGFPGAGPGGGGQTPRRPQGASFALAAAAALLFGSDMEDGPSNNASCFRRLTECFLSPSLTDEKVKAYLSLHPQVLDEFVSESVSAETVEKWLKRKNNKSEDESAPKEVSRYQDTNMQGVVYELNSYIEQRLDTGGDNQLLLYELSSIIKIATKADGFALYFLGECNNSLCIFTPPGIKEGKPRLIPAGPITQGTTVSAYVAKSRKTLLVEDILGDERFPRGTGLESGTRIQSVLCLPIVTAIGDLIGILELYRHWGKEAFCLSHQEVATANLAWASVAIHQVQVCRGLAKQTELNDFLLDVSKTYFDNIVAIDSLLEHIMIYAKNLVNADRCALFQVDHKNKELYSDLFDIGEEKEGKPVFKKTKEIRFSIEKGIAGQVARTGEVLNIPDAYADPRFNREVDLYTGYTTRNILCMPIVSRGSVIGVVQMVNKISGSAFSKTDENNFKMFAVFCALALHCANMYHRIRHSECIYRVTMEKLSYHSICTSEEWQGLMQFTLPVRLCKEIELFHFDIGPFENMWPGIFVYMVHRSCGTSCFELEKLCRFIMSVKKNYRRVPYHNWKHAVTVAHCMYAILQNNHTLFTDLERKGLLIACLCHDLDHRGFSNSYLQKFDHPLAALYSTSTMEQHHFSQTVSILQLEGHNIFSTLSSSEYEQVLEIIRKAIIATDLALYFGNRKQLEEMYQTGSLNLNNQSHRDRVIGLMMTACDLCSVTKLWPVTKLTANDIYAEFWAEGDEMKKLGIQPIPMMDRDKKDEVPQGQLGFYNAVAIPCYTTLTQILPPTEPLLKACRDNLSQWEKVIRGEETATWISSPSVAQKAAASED
Setting [9] is: Table 7, read-out: Human PDE10 (IC50 nM).
The mark [10] stands for this setting: Table 7, read-out: PDE10 pig IC50.

T1 sequence (Q9Y233 1-779 isoform Q9Y233-1): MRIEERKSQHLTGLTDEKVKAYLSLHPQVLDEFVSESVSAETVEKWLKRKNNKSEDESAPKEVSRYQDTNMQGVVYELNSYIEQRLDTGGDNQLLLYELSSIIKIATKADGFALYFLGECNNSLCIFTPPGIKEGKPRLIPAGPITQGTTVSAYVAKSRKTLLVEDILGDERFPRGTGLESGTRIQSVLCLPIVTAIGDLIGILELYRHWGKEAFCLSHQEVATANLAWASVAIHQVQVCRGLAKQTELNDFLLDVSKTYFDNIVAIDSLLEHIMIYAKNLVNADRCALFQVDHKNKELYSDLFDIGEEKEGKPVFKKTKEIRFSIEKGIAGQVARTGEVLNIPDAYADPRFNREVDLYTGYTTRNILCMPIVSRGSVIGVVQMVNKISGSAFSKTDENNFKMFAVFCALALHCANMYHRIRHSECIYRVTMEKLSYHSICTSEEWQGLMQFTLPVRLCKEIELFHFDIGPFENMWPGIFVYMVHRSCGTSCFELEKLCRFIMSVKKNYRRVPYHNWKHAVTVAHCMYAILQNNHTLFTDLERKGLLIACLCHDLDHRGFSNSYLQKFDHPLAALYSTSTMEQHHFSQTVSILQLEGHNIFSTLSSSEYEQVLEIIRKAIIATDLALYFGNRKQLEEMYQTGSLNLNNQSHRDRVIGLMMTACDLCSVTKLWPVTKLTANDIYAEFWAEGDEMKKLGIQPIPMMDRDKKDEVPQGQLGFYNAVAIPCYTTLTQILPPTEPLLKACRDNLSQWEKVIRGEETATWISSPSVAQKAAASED

Usually IC50 stands for the concentration that gives 50% inhibition. As to `COc1ccc(Cl)c(-c2nc(C)c3c(C)nc4ccc(OC)nc4n23)c1` [Example 19, 9-(2-Chloro-5-methoxyphenyl)-2-methoxy-6,7-dimethylimidazo[1,5-a]pyrido[3,2-e]pyrazine], the values for the IC50 in experiment [1] (setting [9]) and in experiment [2] (setting [10]) were 10 to 100 nM and below 0.01 µM, respectively.

Consider `COc1ccc2nc(C)c3c(C)nc(-c4ccc(C(F)(F)F)cc4Cl)n3c2n1` [Example 20, 9-[2-Chloro-4-(trifluoromethyl)phenyl]-2-methoxy-6,7-dimethylimidazo[1,5-a]pyrido[3,2-e]pyrazine], for which the figures for the IC50 in experiment [1] (setting [9]) and in experiment [2] (setting [10]) were below 10 nM and below 0.01 µM, respectively.

In the case of `COc1ccc2nc(C)c3c(C)nc(-c4cc(C)ccc4F)n3c2n1` [Example 21, 9-(2-Fluoro-5-methylphenyl)-2-methoxy-6,7-dimethylimidazo[1,5-a]pyrido[3,2-e]pyrazine], the 50% inhibitory concentration (IC50) in experiment [1] (setting [9]) was 10 to 100 nM; in experiment [2] (setting [10]), below 0.01 µM.

Turning to `COc1ccc2nc(C)c3c(C)nc(-c4cc(C(F)(F)F)ccc4Cl)n3c2n1` [Example 23, 9-[2-Chloro-5-(trifluoromethyl)phenyl]-2-methoxy-6,7-dimethylimidazo[1,5-a]pyrido[3,2-e]pyrazine], the IC50 in experiment [1] (setting [9]) is below 10 nM; in experiment [2] (setting [10]) it was below 0.01 µM.

Consider `COc1ccc2nc(C)c3c(C)nc(-c4cc(OC(F)(F)F)ccc4Cl)n3c2n1` [Example 24, 9-[2-Chloro-5-(trifluoromethoxy)phenyl]-2-methoxy-6,7-dimethylimidazo[1,5-]pyrido[3,2-e]pyrazine], for which the IC50 in experiment [1] (setting [9]) was in the range of 10 to 100 nM; in experiment [2] (setting [10]), 0.01 to 0.1 µM.

As to `COc1ccc2nc(C)c3c(C)nc(-c4cc(C#N)ccc4Cl)n3c2n1` [Example 25, 4-Chloro-3-(2-methoxy-6,7-dimethylimidazo[1,5-a]pyrido[3,2-e]pyrazin-9-yl)benzonitrile], the half-maximal inhibitory concentration (IC50) in experiment [1] (setting [9]) was 10 to 100 nM; in experiment [2] (setting [10]), below 0.01 µM.

Take `CCOc1ccc(Cl)c(-c2nc(C)c3c(C)nc4ccc(OC)nc4n23)c1` [Example 26, 9-(2-Chloro-5-ethoxyphenyl)-2-methoxy-6,7-dimethylimidazo[1,5-a]pyrido[3,2-e]pyrazine]: the IC50 lay within 10 to 100 nM in experiment [1] (setting [9]) and 0.01 to 0.1 µM in experiment [2] (setting [10]).

As to `CCCn1cc(-c2nc(C)c3c(C)nc4ccc(OC)nc4n23)cn1` [Example 189, 2-methoxy-6,7-dimethyl-9-(1-propyl-1H-pyrazol-4-yl)imidazo[1,5-a]pyrido[3,2-e]pyrazine], the IC50 in experiment [1] (Table 9, read-out: hPDE10 IC50) is above 100 nM.

As for `COc1ccc2nc(C)c3c(C)nc(-c4cnn(CCN5CCOCC5)c4)n3c2n1` [Example 190, 2-methoxy-6,7-dimethyl-9-[1-(2-morpholin-4-ylethyl)-1H-pyrazol-4-yl]imidazo[1,5-a]pyrido[3,2-e]pyrazine], the half-inhibitory concentration (IC50) in experiment [1] (Table 9, read-out: hPDE10 IC50) is above 100 nM.

Turning to `COc1ccc(Cc2nccc3cc(OC)c(OC)cc23)cc1OC` [Papaverine, papaverine], the IC50 in experiment [2] (Method A, PDE10 from striatum of pig) is 0.103 µM; in experiment [2] (Method B, PDE10 from striatum of pig, read-out: IC50), 0.11 µM; in experiment [3], 0.077 µM. Further, in experiment [4], the apomorphine-induced stereotypes result is “reduces apomorphine-induced stereotypes in rats”. In experiment [5], the haloperidol-induced catalepsy result is given as “increases haloperidol-induced catalepsy in rats”. Moreover, in experiment [6], the “dopamine concentration in rat brain” value is given as “reducing dopamine concentration in rat brain”.

A word on the Km: it is the substrate concentration at which the rate is half of its maximum. With `Nc1nc2c(ncn2[C@@H]2O[C@@H]3COP(=O)(O)O[C@H]3[C@H]2O)c(=O)[nH]1` [cGMP], the Michaelis-Menten constant (Km) in experiment [2] (Method B, pig striatum, read-out: Km-value for the substrate) is 2.2 µM; in experiment [7] it was 1.8 µM; in experiment [8] it was 3 µM.
